Values joined by “and” are separate entries in the source; they are usually repeats but may differ in a detail not shown here. Equal entries are not always repeated.
What was measured:
mGluR5 [1] = molecular target: T1, mGluR5 (Rattus norvegicus, UniProt P31424); test: Calcium fluorescence assay (FDSS) in rat cortical astrocytes; format: cell-based; conditions: for potentiation of response to suboptimal glutamate: DFB 30 μM, CDPPB 3 μM; for effect on glutamate-induced calcium response: 10 μM compound, 5 min; for effect on glutamate-induced calcium response / maximal reduction of the response to glutamate / antagonist activity across a range of concentrations / IC50: nearly maximal glutamate; for block of MPEP-induced inhibition of the glutamate response: compound added 1 min before; for effect on glutamate concentration response curve: 10 μM (maximally effective) compound, range of glutamate concentrations; for maximal inhibition relative to that of MPEP: % of maximal inhibition by MPEP; for rightward shift of concentration response curve compared to MPEP: antagonism of mGluR5-mediated calcium increase; for activation of mGluR5 when added alone: compound alone; for maximal reduction of the response to glutamate: concentration response; for IC50: read-out: IC50 at inhibiting mGluR5 receptor responses
T1 construct: they provide a native system that endogenously expresses high levels of mGluR5; endogenous in cells; host or cells: primary (secondary-culture) rat cortical astrocytes from Sprague Dawley pups
T1 sequence (P31424 21-1203): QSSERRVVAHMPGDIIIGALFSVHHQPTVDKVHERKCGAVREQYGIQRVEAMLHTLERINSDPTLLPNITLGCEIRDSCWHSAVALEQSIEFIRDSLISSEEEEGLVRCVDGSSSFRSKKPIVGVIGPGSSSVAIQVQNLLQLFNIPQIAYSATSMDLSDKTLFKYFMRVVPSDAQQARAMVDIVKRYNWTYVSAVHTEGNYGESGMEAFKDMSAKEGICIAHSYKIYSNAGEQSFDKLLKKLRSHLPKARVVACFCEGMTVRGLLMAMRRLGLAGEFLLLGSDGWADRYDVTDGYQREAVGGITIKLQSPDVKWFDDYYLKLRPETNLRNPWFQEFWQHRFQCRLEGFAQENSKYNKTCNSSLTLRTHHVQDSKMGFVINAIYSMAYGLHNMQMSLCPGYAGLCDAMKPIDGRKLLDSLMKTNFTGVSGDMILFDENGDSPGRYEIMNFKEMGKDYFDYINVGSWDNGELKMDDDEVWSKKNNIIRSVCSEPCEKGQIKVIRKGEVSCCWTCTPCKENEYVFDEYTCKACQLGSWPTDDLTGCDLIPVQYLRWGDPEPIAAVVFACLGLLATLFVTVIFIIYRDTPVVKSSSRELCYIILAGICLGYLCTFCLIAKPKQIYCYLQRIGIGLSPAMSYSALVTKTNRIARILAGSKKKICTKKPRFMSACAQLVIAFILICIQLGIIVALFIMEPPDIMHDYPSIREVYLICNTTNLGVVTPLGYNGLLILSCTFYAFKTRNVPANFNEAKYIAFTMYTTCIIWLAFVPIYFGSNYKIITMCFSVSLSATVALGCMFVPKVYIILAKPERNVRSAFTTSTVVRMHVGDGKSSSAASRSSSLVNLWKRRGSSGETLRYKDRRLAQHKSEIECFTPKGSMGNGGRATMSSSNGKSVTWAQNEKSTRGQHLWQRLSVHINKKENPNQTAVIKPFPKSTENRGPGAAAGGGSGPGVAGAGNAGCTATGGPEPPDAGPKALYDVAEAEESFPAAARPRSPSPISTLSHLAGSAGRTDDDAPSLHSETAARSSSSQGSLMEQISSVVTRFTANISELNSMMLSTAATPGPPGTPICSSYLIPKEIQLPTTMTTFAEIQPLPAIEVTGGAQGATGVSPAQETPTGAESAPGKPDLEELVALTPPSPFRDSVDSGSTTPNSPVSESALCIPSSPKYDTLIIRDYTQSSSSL
Procedure: Metabotropic glutamate receptor 5induced phosphorylation of extracellular signal-regulated kinase in astrocytes depends on transactivation of the epidermal growth factor receptor. J Neurosci 21:9619-28). In brief, neocortices from 2-4 day old Sprague Dawley rat pups were dissected and dissociated in DMEM by trituration with 1 ml pipette tips. The cells were then centrifuged and resuspended in DMEM (containing 1 mM sodium pyruvate, 2 mM L-glutamine, PenStrep) supplemented with 10% FBS in T75 tissue culture flasks; the medium was changed the next day. Cell cultures were maintained at 37° C. in an atmosphere of 95% air/5% CO2 for 6-8 days. Cells were shaken overnight (280-310 rpm) to remove oligodendrocytes and microglia.
Secondary astrocytes were trypsinzed and replated into poly-D-Lysine coated 384 well plates (Greiner) at 10K cells/well in 20 μL growth medium (DMEM containing 10% FBS, 20 mM HEPES, 2 mM L-glutamine and antibiotic/antimycotic). The second day the medium was changed to growth medium and G-5 supplement (Invitrogen) containing EGF (10 ng/ml), basic fibroblast growth factor (5 ng/ml), insulin (5 μg/ml), and other factors. The cells were nearly confluent within 2 days and resembled the polygonal astrocytic appearance in vivo. The fourth day, approximately 20 hours before experiments, the medium was changed to glutamine free DMEM containing 5% dialyzed FBS, 20 mM HEPES and antibiotic/antimycotic. On day five medium was removed from the plate and the cells incubated with 20 μL of 1 μM Fluo-4AM (Molecular Probes) in assay buffer (Hank's balanced salt solution, 20 mM HEPES and 2.5 mM Probenecid) for 1 h at 37° C. Dye was removed and 20 μL assay buffer was added. Ca2+ flux was measured using the Functional Drug Screening System (FDSS6000 by Hamamatsu).
Compounds were diluted into assay buffer to a 5× stock which was applied to the cells. For neutral measurements, cells were preincubated with the test compounds for 1 min, potentiator or antagonist was added, and the cells incubated for an additional 5 min. Cells were then stimulated for 2 min with an appropriate concentration of glutamate. For potentiator and antagonist measurements, cells were preincubated with the test compounds for 5 min and then stimulated for 2 min with an appropriate concentration of glutamate. Data were collected at ¼ Hz during the preincubation period and at 1 Hz during the glutamate addition phase of the experiment.
Raw data were normalized in a three step process: (1) Cell number and non-uniform illumination/imaging were controlled for based on the initial readings for the well, (2) the signal amplitude for the data point immediately preceding the agonist addition was subtracted from each point on the trace, (3) data were normalized to the maximal response for each experiment. Concentration response curves were generated using Prism 4.0 (GraphPad).

mGluR5 [2] = molecular target: T2, mGluR5 (Homo sapiens, UniProt P41594); conditions: recombinant CHO cells, Published US Application 2001/0056084; cited from earlier work
T2 construct: host or cells: CHO cells transfected with mGluR5 (earlier work)
T2 sequence (P41594 21-1212): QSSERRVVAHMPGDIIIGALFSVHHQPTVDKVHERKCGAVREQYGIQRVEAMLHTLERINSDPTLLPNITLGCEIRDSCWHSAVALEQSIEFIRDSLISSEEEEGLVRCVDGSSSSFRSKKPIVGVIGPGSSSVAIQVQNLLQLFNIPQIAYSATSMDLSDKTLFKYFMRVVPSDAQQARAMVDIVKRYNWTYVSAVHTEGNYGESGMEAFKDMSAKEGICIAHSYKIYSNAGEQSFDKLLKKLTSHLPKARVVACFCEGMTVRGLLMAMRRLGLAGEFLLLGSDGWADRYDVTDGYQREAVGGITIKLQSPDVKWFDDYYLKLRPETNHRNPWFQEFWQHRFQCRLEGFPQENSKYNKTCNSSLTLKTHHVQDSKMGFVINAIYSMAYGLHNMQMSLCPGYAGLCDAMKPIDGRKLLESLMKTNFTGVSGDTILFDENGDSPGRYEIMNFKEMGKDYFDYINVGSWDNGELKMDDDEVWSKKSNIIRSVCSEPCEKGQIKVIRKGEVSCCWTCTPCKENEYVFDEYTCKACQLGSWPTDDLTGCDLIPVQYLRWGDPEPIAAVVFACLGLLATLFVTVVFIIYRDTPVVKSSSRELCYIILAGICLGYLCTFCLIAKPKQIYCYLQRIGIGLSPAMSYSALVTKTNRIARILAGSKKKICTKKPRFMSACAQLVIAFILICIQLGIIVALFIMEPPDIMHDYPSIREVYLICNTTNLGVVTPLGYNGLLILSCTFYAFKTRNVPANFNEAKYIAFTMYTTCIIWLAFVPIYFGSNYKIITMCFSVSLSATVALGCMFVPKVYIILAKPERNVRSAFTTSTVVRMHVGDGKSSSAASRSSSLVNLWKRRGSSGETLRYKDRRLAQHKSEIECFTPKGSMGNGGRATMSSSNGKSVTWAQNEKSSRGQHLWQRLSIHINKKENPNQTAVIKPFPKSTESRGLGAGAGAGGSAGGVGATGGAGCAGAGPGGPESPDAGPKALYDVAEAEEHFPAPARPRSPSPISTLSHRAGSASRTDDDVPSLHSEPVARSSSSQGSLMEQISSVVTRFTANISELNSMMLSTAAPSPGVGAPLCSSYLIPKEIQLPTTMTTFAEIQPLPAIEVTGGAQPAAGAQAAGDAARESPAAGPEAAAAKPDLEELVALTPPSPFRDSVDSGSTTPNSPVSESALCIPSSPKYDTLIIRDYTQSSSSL

[3] = system: mGluR5 receptor responses in STN neurons; test: Whole-cell electrophysiology in STN neurons of rat midbrain slices (DHPG-induced depolarization); format: cell-based
[4] = molecular target: T3, rat mGluR5 (allosteric MPEP site) (Rattus norvegicus, UniProt P31424); test: [3H]methoxyPEPy radioligand binding assay, membranes of HEK293A cells stably expressing rat mGluR5; conditions: for Ki: 2 nM [3H]methoxyPEPy, 60 min room temperature, rat mGluR5 HEK293A membranes, read-out: Ki, displacement of [3H]methoxyPEPy binding; for inhibition of binding of [3H]methoxyPEPy to mGluR5 membranes: extent of displacement, in words
T3 construct: expressed in transfected cells
T3 sequence (P31424 21-1203): as the sequence (P31424 21-1203) above
Procedure: FIG. 3. […] Samples were filtered through glass fiber filters and washed extensively. […] Concentration response curves were generated from the means of three separate experiments. Error bars represent SEM.
Membranes were prepared from HEK293A cells stably expressing rat mGluR5. Compounds were diluted into assay buffer (50 mM Tris/0.9% NaCl, pH 7.4) to a 5× stock and 20 μL test compound added to each well of a 96 well assay plate. 60 μL aliquots of membranes diluted in assay buffer (10 μg/well) were added to each well. 20 μL [3H]methoxyPEPy (2 nM final concentration in assay buffer) was added and the reaction incubated at room temperature for 60 min with shaking. After the incubation period, the membrane-bound ligand was separated from free ligand by filtration through glass-fiber 96 well filter plates (Unifilter-96, GF/B by Perkin Elmer). The contents of each well was transferred simultaneously to the filter plate and washed 4 times with assay buffer (Brandel Cell Harvester). 30 μL scintillation fluid was added to each well and the membrane-bound radioactivity determined by scintillation counting (TopCount by Perkin-Elmer).

[5] = 5MPEP 3, 10, 30 μM on MPEP concentration response

For Brc1ccc(C#Cc2ccccc2)nc1.Cl [YP260], the “partial antagonist activity (FIG. 11)” value (mGluR5 [1]; similarly to the figures above) was “partial activities”.
For Fc1cccc(C=NN=Cc2cccc(F)c2)c1 [DFB, 3,3′-di fluorobenzaldazine, reference compound], the “potentiation of response to suboptimal glutamate” value (mGluR5 [1]) was “potentiated”.
With Cc1ccc(C#Cc2ccccc2)nc1 [5MPEP, 5-methyl-2-phenylethynyl-pyridine, reference compound] the “effect on glutamate-induced calcium response” value (mGluR5 [1]) was “no inhibitory effect”, the “effect on mGluR5 response to glutamate alone” value (mGluR5 [1]; 5MPEP 30 μM, suboptimal glutamate) was “does not alter” and the “block of allosteric potentiator responses to DFB and CDPPB” value (mGluR5 [1]; 5MPEP 30 μM, DFB 30 μM or CDPPB 3 μM, suboptimal glutamate) was “completely blocks”. The “Schild regression slope, 5MPEP versus MPEP” value (mGluR5 [1]; [5]) was 1.076±0.0094 and 1.076±0.01, the Schild x-intercept (mGluR5 [1]; [5]) was −6.249 and the “block of MPEP-induced inhibition of the glutamate response” value (mGluR5 [1]; MPEP 50 nM) was “fully blocked”. For the same compound, the Ki (mGluR5 [1]; extrapolated from Schild regression, read-out: Ki from Schild analysis (x-intercept)) was 560 nM, the “inhibition of mGluR5 receptor responses” value (mGluR5 [2]) was “completely inactive” and the “DHPG-induced depolarization in presence of CDPPB and 5MPEP” value [3] was 7.05±0.82 mV. The “DHPG-induced depolarization in presence of MPEP and 5MPEP” value [3] was 14.28±2.1 mV and the “effect on membrane potential of STN neurons” value [3] was “no effect”.
With COc1cccc(C#Cc2ccc(C)cn2)c1 [M-5MPEP, 2-(3-Methoxyphenylethynyl)-5-methylpyridine] the Ki [4] was 145 nM, the “inhibition of binding of [3H]methoxyPEPy to mGluR5 membranes” value [4] was “fully inhibited” and the “effect on glutamate concentration response curve” value (mGluR5 [1]) was “rightward and partial downward shift”. For the same compound, the “effect on glutamate-induced calcium response” value (mGluR5 [1]) was “partially inhibited”, the “maximal inhibition relative to that of MPEP” value (mGluR5 [1]) was “approximately 50%” and the “block of MPEP-induced inhibition of the glutamate response” value (mGluR5 [1]; MPEP 50 nM) was “only partially blocked”. The “rightward shift of concentration response curve compared to MPEP” value (mGluR5 [1]) was “approximately 10 fold”, the “activation of mGluR5 when added alone” value (mGluR5 [1]) was “do not partially activate” and the “maximal reduction of the response to glutamate” value (mGluR5 [1]) was “approximately 50%”. The “antagonist activity across a range of concentrations” value (mGluR5 [1]) was “partial antagonist activity” and the IC50 (mGluR5 [1]) was roughly 300 nM.
With Cc1cccc(C#Cc2ccccc2)n1 [MPEP, 2-methyl-6-(phenylethynyl)-pyridine, reference compound] the “effect on glutamate-induced calcium response” value (mGluR5 [1]) was “fully blocked”, the “inhibition of calcium response to nearly maximal glutamate” value (mGluR5 [1]; MPEP 50 nM) was “robust inhibition” and the “DHPG-induced depolarization in presence of MPEP” value ([3]; DHPG 100 μM + MPEP 10 μM) was 6.15+0.82 mV.
In the case of “3-(6-Methylpyridin-2-ylethynyl)-5-bromopyridine [Br-5MPEPy]”, the Ki [4] is reported as 182 ± 50 nM, the “inhibition of binding of [3H]methoxyPEPy to mGluR5 membranes” value [4] is reported as “fully inhibited” and the “effect on glutamate concentration response curve” value (mGluR5 [1]) is reported as “rightward and partial downward shift”. The “effect on glutamate-induced calcium response” value (mGluR5 [1]) was “partially inhibited”, the “maximal inhibition relative to that of MPEP” value (mGluR5 [1]) was “approximately 50%” and the “block of MPEP-induced inhibition of the glutamate response” value (mGluR5 [1]; MPEP 50 nM) was “only partially blocked”. The “rightward shift of concentration response curve compared to MPEP” value (mGluR5 [1]) was “approximately 10 fold”, the “activation of mGluR5 when added alone” value (mGluR5 [1]) was “do not partially activate” and the “maximal reduction of the response to glutamate” value (mGluR5 [1]) was “approximately 50%”. The “antagonist activity across a range of concentrations” value (mGluR5 [1]) was “partial antagonist activity” and the IC50 (mGluR5 [1]) was roughly 300 nM.
For N[C@H](C(=O)O)c1cc(O)cc(O)c1 [DHPG], the “depolarization of STN neurons” value ([3]; DHPG 10 μM alone (submaximal)) was 6.89 ± 1.22 mV and the “depolarization of STN neurons” value ([3]; DHPG 100 μM alone, TTX 500 nM) was 14.82 ± 2.21 mV.
With N#Cc1cccc(C(=O)Nc2cc(-c3ccccc3)nn2-c2ccccc2)c1 [CDPPB, 3-cyano-N-(I,3-diphenyl-1 H-pyrazol-5-yl)benzamide, reference compound] the “potentiation of response to suboptimal glutamate” value (mGluR5 [1]) was “potentiated” and the “DHPG-induced depolarization in presence of CDPPB” value ([3]; DHPG 10 μM + CDPPB 10 μM) was 13.39±1.66 mV.

From patent publication US7531541B2, “Partial mGluR5 antagonists for treatment of anxiety and CNS disorders” (Vanderbilt University, priority 2005, dated 2009)
